Article PMC7997453 (Pharmaceuticals, 2021)
Like-named read-outs stand apart in the source and are kept apart here.

Key:
[1] = ref supplement 2; cited from earlier work
CYP3A5 [2] = biological target: T1, CYP3A5 (Homo sapiens, UniProt P20815); experiment: Reversible inhibition (RI) assay on tacrolimus metabolism, CYP3A5*1/*3 HLM with CYP3cide
Description: (§3) The reactions were started with the addition of nicotinamide adenine dinucleotide phosphate (NADPH, 1 mM) and stopped 10 min later upon adding a double volume of ice-cold methanol. […] Reactions were terminated with the same method as the CYP3A4 group. All incubations were carried out in triplicate. […] Dixon plots were used to analyze the inhibitory type of RI assay and Ki value.

CYP3A4 [3] = biological target: T2, CYP3A4 (Homo sapiens, UniProt P08684); experiment: Reversible inhibition (RI) assay on tacrolimus metabolism, CYP3A5*3/*3 HLM
T2 sequence (P08684 whole entry): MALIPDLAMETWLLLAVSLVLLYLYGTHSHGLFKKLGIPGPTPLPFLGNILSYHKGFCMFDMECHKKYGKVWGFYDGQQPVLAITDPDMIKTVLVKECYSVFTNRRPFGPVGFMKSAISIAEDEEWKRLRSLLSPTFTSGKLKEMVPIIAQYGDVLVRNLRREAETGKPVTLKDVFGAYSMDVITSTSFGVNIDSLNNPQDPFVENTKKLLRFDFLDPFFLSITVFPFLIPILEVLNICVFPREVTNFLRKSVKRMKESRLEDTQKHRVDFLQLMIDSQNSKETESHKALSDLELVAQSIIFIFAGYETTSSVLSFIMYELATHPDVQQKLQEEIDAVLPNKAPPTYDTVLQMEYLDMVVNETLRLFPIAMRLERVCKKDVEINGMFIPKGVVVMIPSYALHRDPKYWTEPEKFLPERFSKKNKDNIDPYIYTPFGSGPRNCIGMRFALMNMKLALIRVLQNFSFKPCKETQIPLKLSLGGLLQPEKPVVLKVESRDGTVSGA
Description: as §3

CYP3A = conditions: rat liver microsomes, cited from earlier work
[4] = parameters: method as in https://pubchem.ncbi.nlm.nih.gov/; conditions: ref https://pubchem.ncbi.nlm.nih.gov/; cited from earlier work
[5] = parameters: method as in PMID 24195812; conditions: rats; oral dose of 0.024 mM/kg STA or SIA; cited from earlier work
CYP3A4 [6] = biological target: T2, CYP3A4; experiment: Time-dependent inhibition (TDI) assay, testosterone-6β-hydroxylation, CYP3A5*3/*3 HLM; format: biochemical
Description: (§1) Testosterone-6β-hydroxylation was used to measure the activity of CYP3A4 and CYP3A5. […] With the corresponding double-reciprocal plot, the derived kinetic constants from the inactivation experiments were estimated.
(§2) Two-step incubation was performed to evaluate the TDI assay. […] After pre-incubation for 3 min at 37 °C in a shaking water bath, the enzymatic reaction was started upon adding NADPH (1 mM) with various pre-reaction time (0, 5, 10, 20, 30 min). For TDI on CYP3A5, NADPH (1 mM) was added to the incubation which contained CYP3A5*1/*3 HLM (0.5 mg/mL) and CYP3cide (1.2 μM) after being pre-warmed for 3 min. […] Next step, an aliquot (20 μL) of the primary pre-reaction mixture was transferred to 180 μL of the secondary incubation system which consisted of PBS (0.1 M), testosterone (200 μM) and NADPH (1 mM). The secondary reaction was incubated at 37 °C for 10 min and terminated by adding 400 μL ice-cold acetonitrile containing prednisolone as the internal standard (0.3150 μM for CYP3A5*3/*3 HLM incubation and 0.07875 μM for CYP3A5*1/*3 HLM incubation). […] The observed inactivation rate of the affected enzyme (kobs) was the negative slope of the linear regression. kinact and KI were calculated using Equation (1) by the double-reciprocal plot. I represents the concentration of the inhibitor. (1) kobs=kinact×I/[…]

[7] = ref supplement 1; cited from earlier work
[8] = tissue to plasma partition coefficients; conditions: In-house data
Excerpt: All PBPK simulations were constructed using the population-based ADME(absorption, distribution, metabolism, and excretion) simulator (version 13.1.1, Simcyp® Ltd., Certara, Sheffield, UK).

[9] = intrinsic clearance in human liver microsomes; format: in vitro ADME; conditions: In-house data, read-out: CLint,HLM
CYP3A5 [10] = biological target: T1, CYP3A5; experiment: Time-dependent inhibition (TDI) assay, testosterone-6β-hydroxylation, CYP3A5*1/*3 HLM with CYP3cide; format: biochemical
Description: as §1, §2

[11] = 2 μM SIA, pre-incubation 10 min
[12] = 2 μM SIA, pre-incubation 20 min
[13] = 2 μM SIA, pre-incubation 30 min
[14] = 4 μM SIA, pre-incubation 10 min
[15] = 4 μM SIA, pre-incubation 20 min
[16] = 4 μM SIA, pre-incubation 30 min
[17] = 8 μM SIA, pre-incubation 10 min
[18] = 8 μM SIA, pre-incubation 20 min
[19] = 8 μM SIA, pre-incubation 30 min
[20] = 16 μM SIA, pre-incubation 0 min
[21] = 16 μM SIA, pre-incubation 5 min
[22] = 16 μM SIA, pre-incubation 10 min
[23] = 16 μM SIA, pre-incubation 20 min
[24] = 16 μM SIA, pre-incubation 30 min

T1 sequence (P20815 whole entry): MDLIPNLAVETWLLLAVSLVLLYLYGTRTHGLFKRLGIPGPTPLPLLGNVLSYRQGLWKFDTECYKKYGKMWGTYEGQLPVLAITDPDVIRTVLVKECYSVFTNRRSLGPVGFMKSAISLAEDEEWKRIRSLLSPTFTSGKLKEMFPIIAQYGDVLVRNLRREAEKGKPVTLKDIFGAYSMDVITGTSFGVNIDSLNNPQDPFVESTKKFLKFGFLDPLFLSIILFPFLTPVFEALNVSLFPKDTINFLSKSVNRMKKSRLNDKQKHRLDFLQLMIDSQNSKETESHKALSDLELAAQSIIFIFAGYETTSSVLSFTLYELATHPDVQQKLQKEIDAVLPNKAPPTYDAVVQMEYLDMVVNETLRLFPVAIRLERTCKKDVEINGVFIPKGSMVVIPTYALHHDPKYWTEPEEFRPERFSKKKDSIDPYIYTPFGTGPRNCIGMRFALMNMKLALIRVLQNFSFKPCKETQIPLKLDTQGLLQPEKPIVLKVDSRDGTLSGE

Ki (CYP3A5 [2]): 8.74 µM
Dixon plot data point, Figure 2D, Mean (CYP3A5 [2]; 2.4 μM SIA, 0.2 μM tacrolimus): 32.0000
Dixon plot data point, Figure 2D, Mean (CYP3A5 [2]; 2.4 μM SIA, 0.4 μM tacrolimus): 17.6167
Dixon plot data point, Figure 2D, Mean (CYP3A5 [2]; 2.4 μM SIA, 0.8 μM tacrolimus): 9.2000
Dixon plot data point, Figure 2D, Mean (CYP3A5 [2]; 2.4 μM SIA, 1.6 μM tacrolimus): 6.2790
Dixon plot data point, Figure 2D, Mean (CYP3A5 [2]; 7.2 μM SIA, 0.4 μM tacrolimus): 21.6176
Dixon plot data point, Figure 2D, Mean (CYP3A5 [2]; 7.2 μM SIA, 1.6 μM tacrolimus): 6.9243
Dixon plot data point, Figure 2D, Mean (CYP3A5 [2]; 12 μM SIA, 0.2 μM tacrolimus): 60.0000
Dixon plot data point, Figure 2D, Mean (CYP3A5 [2]; 12 μM SIA, 0.4 μM tacrolimus): 30.1990
Dixon plot data point, Figure 2D, Mean (CYP3A5 [2]; 12 μM SIA, 0.8 μM tacrolimus): 15.0500
Dixon plot data point, Figure 2D, Mean (CYP3A5 [2]; 12 μM SIA, 1.6 μM tacrolimus): 7.2381
Dixon plot data point, Figure 2C, Mean (CYP3A4 [3]; 2.4 μM SIA, 0.2 μM tacrolimus): 20.0000
Dixon plot data point, Figure 2C, Mean (CYP3A4 [3]; 2.4 μM SIA, 0.4 μM tacrolimus): 10.0000
Dixon plot data point, Figure 2C, Mean (CYP3A4 [3]; 2.4 μM SIA, 0.8 μM tacrolimus): 3.3452
Dixon plot data point, Figure 2C, Mean (CYP3A4 [3]; 2.4 μM SIA, 1.6 μM tacrolimus): 1.4662
Dixon plot data point, Figure 2C, Mean (CYP3A4 [3]; 7.2 μM SIA, 0.4 μM tacrolimus): 10.0565
Dixon plot data point, Figure 2C, Mean (CYP3A4 [3]; 7.2 μM SIA, 1.6 μM tacrolimus): 1.7598
Dixon plot data point, Figure 2C, Mean (CYP3A4 [3]; 12 μM SIA, 0.2 μM tacrolimus): 20.3445
Dixon plot data point, Figure 2C, Mean (CYP3A4 [3]; 12 μM SIA, 0.4 μM tacrolimus): 9.8175
Dixon plot data point, Figure 2C, Mean (CYP3A4 [3]; 12 μM SIA, 0.8 μM tacrolimus): 4.5304
Dixon plot data point, Figure 2C, Mean (CYP3A4 [3]; 12 μM SIA, 1.6 μM tacrolimus): 1.6431
reversible inhibition on CYP3A4 (in words) (CYP3A4 [3]; CYP3A5*3/*3 HLM, substrate tacrolimus): little reversible inhibition
TDI profile on CYP3A4 (in words) (CYP3A4 [6]): slight TDI
log of percentage of control activity, Figure 4A, Mean (CYP3A4 [6]; 2 μM SIA, pre-incubation 0 min): 4.6052
log of percentage of control activity, Figure 4A, Mean (CYP3A4 [6]; 2 μM SIA, pre-incubation 5 min): 4.5754
log of percentage of control activity, Figure 4A, Mean (CYP3A4 [6]; [11]): 4.5165
log of percentage of control activity, Figure 4A, Mean (CYP3A4 [6]; [12]): 4.4602
log of percentage of control activity, Figure 4A, Mean (CYP3A4 [6]; [13]): 4.3520
log of percentage of control activity, Figure 4A, Mean (CYP3A4 [6]; 4 μM SIA, pre-incubation 0 min): 4.6052
log of percentage of control activity, Figure 4A, Mean (CYP3A4 [6]; 4 μM SIA, pre-incubation 5 min): 4.5505
log of percentage of control activity, Figure 4A, Mean (CYP3A4 [6]; [14]): 4.4420
log of percentage of control activity, Figure 4A, Mean (CYP3A4 [6]; [15]): 4.3925
log of percentage of control activity, Figure 4A, Mean (CYP3A4 [6]; [16]): 4.2490
log of percentage of control activity, Figure 4A, Mean (CYP3A4 [6]; 8 μM SIA, pre-incubation 0 min): 4.6029
log of percentage of control activity, Figure 4A, Mean (CYP3A4 [6]; 8 μM SIA, pre-incubation 5 min): 4.5164
log of percentage of control activity, Figure 4A, Mean (CYP3A4 [6]; [17]): 4.3979
log of percentage of control activity, Figure 4A, Mean (CYP3A4 [6]; [18]): 4.2781
log of percentage of control activity, Figure 4A, Mean (CYP3A4 [6]; [19]): 4.1876
log of percentage of control activity, Figure 4A, Mean (CYP3A4 [6]; [20]): 4.6052
log of percentage of control activity, Figure 4A, Mean (CYP3A4 [6]; [21]): 4.4518
log of percentage of control activity, Figure 4A, Mean (CYP3A4 [6]; [22]): 4.3776
log of percentage of control activity, Figure 4A, Mean (CYP3A4 [6]; [23]): 4.2397
log of percentage of control activity, Figure 4A, Mean (CYP3A4 [6]; [24]): 4.0738
kinact/KI (CYP3A4 [6]; CYP3A4): 125 M⁻¹ s⁻¹
KI (CYP3A4 [6]; CYP3A4, testosterone-6β-hydroxylation): 2.54 µM
kinact (CYP3A4 [6]; human, CYP3A5*3/*3 human liver microsomes, probe testosterone (200 μM), CYP3A4, testosterone-6β-hydroxylation): 0.000317 s⁻¹
Kp ([8]; adipose, read-out: Kp Adipose): 36.4
Kp ([8]; brain, read-out: Kp Brain): 7.4
Kp ([8]; gut, read-out: Kp Gut): 210
Kp ([8]; heart, read-out: Kp Heart): 39.5
Kp ([8]; kidney, read-out: Kp Kidney): 5.9
Kp ([8]; liver, read-out: Kp Liver): 3.9
Kp ([8]; lung, read-out: Kp Lung): 19
Kp ([8]; spleen, read-out: Kp Spleen): 7.6
microsomal CLint [9]: 130 µL/min/mg
TDI profile on CYP3A5 (in words) (CYP3A5 [10]): slight TDI
log of percentage of control activity, Figure 4C, Mean (CYP3A5 [10]; 2 μM SIA, pre-incubation 0 min): 4.6052
log of percentage of control activity, Figure 4C, Mean (CYP3A5 [10]; 2 μM SIA, pre-incubation 5 min): 4.5539
log of percentage of control activity, Figure 4C, Mean (CYP3A5 [10]; [11]): 4.5218
log of percentage of control activity, Figure 4C, Mean (CYP3A5 [10]; [12]): 4.4427
log of percentage of control activity, Figure 4C, Mean (CYP3A5 [10]; [13]): 4.3791
log of percentage of control activity, Figure 4C, Mean (CYP3A5 [10]; 4 μM SIA, pre-incubation 0 min): 4.6052
log of percentage of control activity, Figure 4C, Mean (CYP3A5 [10]; 4 μM SIA, pre-incubation 5 min): 4.4998
log of percentage of control activity, Figure 4C, Mean (CYP3A5 [10]; [14]): 4.5031
log of percentage of control activity, Figure 4C, Mean (CYP3A5 [10]; [15]): 4.4869
log of percentage of control activity, Figure 4C, Mean (CYP3A5 [10]; [16]): 4.2859
log of percentage of control activity, Figure 4C, Mean (CYP3A5 [10]; 8 μM SIA, pre-incubation 0 min): 4.6052
log of percentage of control activity, Figure 4C, Mean (CYP3A5 [10]; 8 μM SIA, pre-incubation 5 min): 4.4632
log of percentage of control activity, Figure 4C, Mean (CYP3A5 [10]; [17]): 4.4150
log of percentage of control activity, Figure 4C, Mean (CYP3A5 [10]; [18]): 4.4028
log of percentage of control activity, Figure 4C, Mean (CYP3A5 [10]; [19]): 4.2282
log of percentage of control activity, Figure 4C, Mean (CYP3A5 [10]; [20]): 4.5539
log of percentage of control activity, Figure 4C, Mean (CYP3A5 [10]; [21]): 4.4523
log of percentage of control activity, Figure 4C, Mean (CYP3A5 [10]; [22]): 4.3701
log of percentage of control activity, Figure 4C, Mean (CYP3A5 [10]; [23]): 4.2585
log of percentage of control activity, Figure 4C, Mean (CYP3A5 [10]; [24]): 4.1607
kinact/KI (CYP3A5 [10]; CYP3A5): 113 M⁻¹ s⁻¹
KI (CYP3A5 [10]; CYP3A5, testosterone-6β-hydroxylation): 2.07 µM
kinact (CYP3A5 [10]; human, CYP3A5*1/*3 human liver microsomes with CYP3cide, probe testosterone (200 μM), with CYP3cide ([…]), CYP3A5, testosterone-6β-hydroxylation): 0.000233 s⁻¹
Structure (SMILES): COc1cc2c(c(OC)c1OC)-c1c(cc(OC)c(OC)c1OC)C[C@H](C)[C@H](C)C2 [SIA, schisandrin A]
fu plasma [1]: 0.0334
Ki (CYP3A; midazolam 1′-hydroxylation): 5.83 µM
Ki (CYP3A; midazolam 4-hydroxylation): 4.8 µM
HBD [4]: 0
PSA [4]: 55.38 Å2
increase of systemic exposure of tacrolimus [5]: 2.37 fold
Log Po:w [7]: 5.265
